Measurements: US20200121699A1, “COMBINATION THERAPIES COMPRISING IMMUNO-ONCOLOGY AGENTS AND BELINOSTAT” (ONXEO, priority 2016, published 2020)

Legend:
[1] = test system: irradiated Hepa129 tumor cells; experiment: IFN-gamma ELISPOT of spleen cells from treated tumor-bearing mice stimulated with irradiated tumor cells; type: in vivo, C3H mice; details: 20-h ELISPOT, two-week treatment, versus the same antibody without Beleodaq
Description: Treatment allocation were performed as follows for immune characterization study:
A single experiment was carried out for each drug, using n=5 animals per group.
Lymphoid organs (spleen, lymph nodes) were obtained from sacrificed animals, homogenized and cell suspensions were used to measure the following parameters:
ELISPOT: measuring the number of IFN-gamma spot forming cells after co-culture of lymphocytes with irradiated Hepa129 tumor cells.
Tumor-bearing mice were treated during two weeks and sacrificed to obtain their spleen and analyze immune-related parameters. For these experiments mice received two antibody administrations (days 0 and 7) and Beleodaq® (daily) during the two-week treatment period.
Functional assays: Spleen cells were stimulated with irradiated tumor cells to analyze antitumor T cell responses measured as IFN-gamma production using a 20-h ELISPOT assay.

[2] = test system: Hepa129 murine hepatocellular carcinoma cells; experiment: Antitumor efficacy in subcutaneous Hepa129 hepatocellular carcinoma mouse model; type: in vivo, C3H mice; details: s.c. Hepa129 tumors, Beleodaq 90 mg/kg IP daily D7 to D27, antibodies 50 μg/mouse IP D7, D14
Description: As tumor model, Hepa129 murine hepatocellular carcinoma cells implanted subcutaneously in C3H mice were used. Hepa129 cells were maintained in culture up to 3 passages before injection in mice. Cells were sub-cultured three days before the day of injection.
The day of cell injection, Hepa129 cells were harvested and centrifuged at 1800 rpm for 5 min, and resuspended in PBS. Cells were counted in 0.04% Trypan Blue for viability quantification. Cells were resuspended in the adequate volume of PBS in order to have 10^6 cells in 100 μL. […] were subcutaneously injected into the right flank of mice.
When subcutaneous Hepa129 tumors reached a mean tumor diameter of about 5 mm (day 7), mice were allocated to treatment groups and identified individually by ear tags. Beleodaq® was administered IP daily at days 7 to 27 at 90 mg/kg. Antibodies Isotype control (2A3) and anti-CTLA-4 (9D9) (from BioXcell) were administered IP at days 7 and 14.
Treatment allocation were performed as follows for antitumor efficacy study:
Animals were monitored and sacrificed when tumor diameter reached 17 mm. Each experiment was carried out twice with n=8 animals per group.

4T1 breast cancer cells = experiment: Orthotopic 4T1 breast cancer mouse model; type: in vivo, Balb/C mouse; details: 4T1 in mammary fat gland; belinostat 80 mg/kg i.p. daily from day 8; antibodies 200 μg/mouse i.p.
Description: The Belinostat treatment was formulated every one or two day.
The aPD1 treatment solutions were prepared on the days of the treatment (days 8, 12, 16 and 20).
The aCTLA4 treatment solutions were prepared on days 7, 11, 16 and 20 and stored at 4° C.
4T1 breast cancer cells (5*10^5 cells per Balb/C mouse) were in occulated in the mammary fat gland of Balb/C females. The 4T1 (ATCC CRL-2539) cells were bought from ATCC and cultured in RPMI-1640 Medium containing 10% fetal bovine serum. Cells were passaged 5-10 times before in inoculation. Cells were detached with trypsin, washed twice in PBS, centrifuged and resuspended in PBS. Cell viability was checked by a staining with […] and cells were used when viability was higher than 95%. Cells were counted manually and adjusted to 5*10^6 cells per ml. Finally 100 μl were injected.

Q: Which “antitumor T cell responses measured as IFN-gamma production” value [1] does the source give for `O=C(/C=C/c1cccc(S(=O)(=O)Nc2ccccc2)c1)NO` [Beleodaq®, (2E)-N-hydroxy-3-[3-(phenylsulfamoyl)phenyl]prop-2-enamide] here?
A: no significant differences

Q: What about the tumor growth [2] of the same compound?
A: did not modify

Q: What about the animal survival ([2]; sacrificed when tumor diameter reached 17 mm) of the same compound?
A: did not modify

Q: And the “apparent external tumor size” value (4T1 breast cancer cells)?
A: reduced

Q: And the mortality (4T1 breast cancer cells)?
A: reduced
